Experimental data from the supplement of paper PMC10307832.

Tests used:
Assay in all cases: relative viability (nuclei count vs DMSO), 5 days (fraction); higher = more cells survive
NCI-H1975 = system: NCI-H1975
Procedure, shortened: (§1)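 Relative viability was taken as the ratio of nuclei in treated wells to nuclei in vehicle wells. Lung cancer cell lines in 1536-well plates received compounds by pin tool one day after seeding, either one drug alone or a fixed anchor-drug dose plus five library-drug doses (not always all listed) in √10 steps. Nuclei were counted on 4× images after 5 days of treatment, and values are medians of duplicate plates.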

NCI-H838 = system: NCI-H838
Procedure, shortened: as §1

NCI-H1944 = system: NCI-H1944
Procedure, shortened: as §1

LXF-289 = system: LXF-289
Procedure, shortened: as §1

NCI-H1666 = system: NCI-H1666
Procedure, shortened: as §1

LU99A = system: LU99A
Procedure, shortened: as §1

ChaGo-K-1 = system: ChaGo-K-1
Procedure, shortened: as §1

LC-2-ad = system: LC-2-ad
Procedure, shortened: as §1

LK-2 = system: LK-2
Procedure, shortened: as §1

BEN = system: BEN
Procedure, shortened: as §1

HCC-78 = system: HCC-78
Procedure, shortened: as §1

For CC(=O)O[C@@]12CO[C@@H]1C[C@H](O)[C@@]1(C)C(=O)[C@H](O)C3=C(C)[C@@H](OC(=O)[C@H](O)[C@@H](NC(=O)OC(C)(C)C)c4ccccc4)C[C@@](O)([C@@H](OC(=O)c4ccccc4)[C@H]21)C3(C)C [Docetaxel] + N=C(N)NC(=N)NCCc1ccccc1 [Phenformin] (partner 250 µM), the relative viability (NCI-H1975; first compound 0.0002 µM) was 0.406, the relative viability (NCI-H1975; first compound 0.000632 µM) was 0.334 and the relative viability (NCI-H1975; first compound 0.002 µM) was 0.209. The relative viability (NCI-H1975; first compound 0.006325 µM) was 0.148, the relative viability (NCI-H1975; first compound 0.02 µM) was 0.134 and the relative viability (NCI-H838; first compound 0.0002 µM) was 0.533. It also gave a relative viability (NCI-H838; first compound 0.000632 µM) of 0.386, a relative viability (NCI-H838; first compound 0.002 µM) of 0.198 and a relative viability (NCI-H838; first compound 0.006325 µM) of 0.161. For the same compound, the relative viability (NCI-H838; first compound 0.02 µM) was 0.108, the relative viability (NCI-H1944; first compound 0.0002 µM) was 0.182 and the relative viability (NCI-H1944; first compound 0.000632 µM) was 0.188. For the same compound, the relative viability (NCI-H1944; first compound 0.002 µM) was 0.163, the relative viability (NCI-H1944; first compound 0.006325 µM) was 0.133 and the relative viability (NCI-H1944; first compound 0.02 µM) was 0.0967. It also gave a relative viability (LXF-289; first compound 0.0002 µM) of 0.521, a relative viability (LXF-289; first compound 0.000632 µM) of 0.42 and a relative viability (LXF-289; first compound 0.002 µM) of 0.127. The relative viability (LXF-289; first compound 0.006325 µM) was 0.0915, the relative viability (LXF-289; first compound 0.02 µM) was 0.0828 and the relative viability (NCI-H1666; first compound 0.0002 µM) was 0.47. For the same compound, the relative viability (NCI-H1666; first compound 0.000632 µM) was 0.515, the relative viability (NCI-H1666; first compound 0.002 µM) was 0.537 and the relative viability (NCI-H1666; first compound 0.006325 µM) was 0.382. For the same compound, the relative viability (NCI-H1666; first compound 0.02 µM) was 0.337, the relative viability (LU99A; first compound 0.0002 µM) was 0.811 and the relative viability (LU99A; first compound 0.000632 µM) was 0.656. It also gave a relative viability (LU99A; first compound 0.002 µM) of 0.364, a relative viability (LU99A; first compound 0.006325 µM) of 0.335 and a relative viability (LU99A; first compound 0.02 µM) of 0.242. The relative viability (ChaGo-K-1; first compound 0.0002 µM) was 0.431, the relative viability (ChaGo-K-1; first compound 0.000632 µM) was 0.408 and the relative viability (ChaGo-K-1; first compound 0.002 µM) was 0.283. It also gave a relative viability (ChaGo-K-1; first compound 0.006325 µM) of 0.192, a relative viability (ChaGo-K-1; first compound 0.02 µM) of 0.149 and a relative viability (LC-2-ad; first compound 0.0002 µM) of 0.497. It also gave a relative viability (LC-2-ad; first compound 0.000632 µM) of 0.494, a relative viability (LC-2-ad; first compound 0.002 µM) of 0.327 and a relative viability (LC-2-ad; first compound 0.006325 µM) of 0.243. For the same compound, the relative viability (LK-2; first compound 0.0002 µM) was 0.369, the relative viability (LK-2; first compound 0.000632 µM) was 0.27 and the relative viability (LK-2; first compound 0.002 µM) was 0.118. The relative viability (LK-2; first compound 0.006325 µM) was 0.153, the relative viability (LK-2; first compound 0.02 µM) was 0.124 and the relative viability (BEN; first compound 0.0002 µM) was 0.248. It also gave a relative viability (BEN; first compound 0.000632 µM) of 0.253, a relative viability (BEN; first compound 0.002 µM) of 0.307 and a relative viability (BEN; first compound 0.006325 µM) of 0.215. The relative viability (BEN; first compound 0.02 µM) was 0.194, the relative viability (HCC-78; first compound 0.0002 µM) was 0.582 and the relative viability (HCC-78; first compound 0.000632 µM) was 0.615. It also gave a relative viability (HCC-78; first compound 0.002 µM) of 0.409, a relative viability (HCC-78; first compound 0.006325 µM) of 0.371 and a relative viability (HCC-78; first compound 0.02 µM) of 0.354.
